Experiments:
FAD-GDH enzyme [1] = assay: Cyclic voltammetry of bioelectrodes (carbon nanotubes / aromatic molecule / FAD-GDH) without and with glucose; format: biochemical
Experimental: In FIG. 4, the following terms have the following meanings: • uCNT=carbon nanotubes alone, • FADGDH=CNTs functionalized by FAD-GDH, • 25 mM glucose=CNTs functionalized by FAD-GDH in the presence of a glucose solution at 25 mmol L^−1, • 25 mM glucose (FAD region)=same as above, including the electroactive region of the FAD-GDH cofactor (FAD) in the measurement window in the presence of a glucose solution at 25 mmol L^−1, • FAD=Flavin Adenine Dinucleotide, • 25 mM glucose=concentration of the glucose solution of 25 mmol L^−1, • PYR-NHS=N-hydroxysuccinimide ester of pyrene-butyric acid, • PYR=pyrene, • 1.4-NQ=1.4-naphthoquinone, • PQ=9.10-phenanthrenequinone, • PL=1.10-phenanthroline, • MPL=5-methyl-1.10-phenanthroline, • PLQ=1.10-phenanthroline-5.6-dione.
The tested electrode was a vitreous carbon electrode (support 1) coated with layer 2 of carbon nanotubes alone (Comparative Example 2) or in which the FAD-GDH enzyme alone was deposited on layer 2 of carbon nanotubes (Comparative Example 4).
The dashed curve denoted 3 represents the cyclic voltammogram obtained with a larger electrochemical window (from −0.600 to 0.100 V vs SCE), in the presence of a glucose solution at 25 mmol L^−1.
In FIG. 4, the cartridge C represents the cyclic voltammograms of the electrode of Comparative Example 6 consisting of a vitreous carbon electrode, of layer 2 of carbon nanotubes functionalized by layer 3 of an aromatic molecule which is 1-pyrenebutyric acid N-hydroxysuccinimide ester (PANHS).
Cartridges D, G and H represent the cyclic voltammograms of the electrodes obtained in Examples 4, 5 and 6 respectively.
Cartridges E, F and I show the cyclic voltammograms obtained with the electrodes obtained in Examples 7, 8 and 1 respectively.

FAD-GDH enzyme [2] = assay: Cyclic voltammetric inhibition assays: FAD-GDH directly on carbon nanotubes, aromatic molecules added in solution; format: biochemical; conditions: 100 mmol L^−1 glucose; for catalytic current when the aromatic molecule is present in solution, versus absence of redox mediator: electrode of Comparative Example 4; for effect on performance of bioelectrocatalysis over time (inhibition of FAD-GDH): added in solution; for effect on catalytic currents (inhibition of FAD-GDH): 200 μmol L^−1 in solution, sampling times of less than three hours
Experimental: They were obtained with electrodes whose layer of FAD-GDH enzymes is directly deposited on layer 2 of carbon nanotubes in the presence of 100 mmol L^−1 of glucose solution.
The aromatic molecules 9.10-phenanthrenequinone, 1.10-phenanthroline-5.6-dione, phenanthrene and 1.10-phenanthroline are then gradually added in solution.
0 μM PX=CNTs functionalized by FAD-GDH in the presence of a glucose solution at 100 mmol L^−1 and in the absence of any aromatic molecules (X representing the aromatic molecule PLQ (cartridge A) or PQ (cartridge B))
400 μM PX=CNTs functionalized by FAD-GDH in the presence of a glucose solution at 100 mmol L^−1 and 400 μmol L^−1 of an aromatic molecule PLQ (cartridge A) or PQ (cartridge B)
400 μM PX (180 min)=CNTs functionalized by FAD-GDH in the presence of a glucose solution at 100 mmol L^−1 and […] of an aromatic molecule PLQ (cartridge A) or PQ (cartridge B) after incubation in the solution with a duration of 180 minutes.
200 μM PQ=CNTs functionalized by FAD-GDH in the presence of a solution of glucose at 100 mmol L^−1 and 200 μmol L^−1 of an aromatic molecule PQ (cartridge C and D)
200 μM PQ+200 μM PY (180 min)=CNTs functionalized by FAD-GDH in the presence of a glucose solution at 100 mmol L^−1, 200 μmol L^−1 of an aromatic molecule PQ and 200 μmol L^−1 of an aromatic molecule PY after incubation in the solution for a duration of 180 minutes. (Y represents the aromatic molecule PL (cartridge C) or PH (cartridge D)). • PLQ=1.10-phenanthroline-5.6-dione. • PQ=9.10-phenanthrenequinone, • PL=1.10-phenanthroline, • PH=phenanthrene,
The electrode tested was a vitreous carbon electrode (support 1) in which the FAD-GDH enzyme alone was deposited on layer 2 of carbon nanotubes (Comparative Example 4).

FAD-GDH enzyme [3] = assay: as above; format: biochemical; conditions: 100 mmol L^−1 glucose, 400 μmol L^−1 aromatic molecule
enzyme FAD-GDH = conditions: known; supplier catalog; cited from earlier work

| Compound | glucose concentration at saturation (FAD-GDH enzyme [1]; aromatic molecule immobilized on carbon nanotube layer with FAD-GDH) [mmol/L] | electrocatalytic current (FAD-GDH enzyme [1]; aromatic molecule immobilized on carbon nanotube layer with FAD-GDH, potentials higher than 0 V vs SCE, after saturation with glucose) | electron transfer behavior of the aromatic molecule towards FAD-GDH (FAD-GDH enzyme [1]; non-covalent immobilization on a layer of carbon nanotubes) | catalytic current when the aromatic molecule is present in solution, versus absence of redox mediator (FAD-GDH enzyme [2]) | effect on performance of bioelectrocatalysis over time (inhibition of FAD-GDH) (FAD-GDH enzyme [2]) | change of catalytic current after 180 min incubation (inhibition of FAD-GDH) (FAD-GDH enzyme [3]) | change of catalytic current after 180 min incubation together with PQ (inhibition of FAD-GDH) (FAD-GDH enzyme [2]; 200 μmol L^−1 PQ and 200 μmol L^−1 tested molecule, 180 min) | inhibitory activity for FAD-GDH oxidation of glucose (enzyme FAD-GDH) | effect on catalytic currents (inhibition of FAD-GDH) (FAD-GDH enzyme [2]) |
| --- | --- | --- | --- | --- | --- | --- | --- | --- | --- |
| O=C1C(=O)c2cccnc2-c2ncccc21 [1.10-phenanthroline-5.6-dione] | ~130 | 600-700 μA | the best redox aromatic molecule | strong increase in the catalytic current | progressive decrease in the performance of bioelectrocatalysis | sharp decrease in the catalytic current |  |  |  |
| c1cnc2c(c1)ccc1cccnc12 [1.10-phenanthroline] |  |  |  |  | progressive decrease in the performance of bioelectrocatalysis |  | The catalytic current drops again | inhibitor of the enzyme FAD-GDH |  |
| O=C1C(=O)c2ccccc2-c2ccccc21 [9.10-phenanthrenequinone] |  |  |  | strong increase of the catalytic current |  | no decrease in the catalytic current |  |  | does not cause a drastic decrease in the catalytic currents |
| c1ccc2c(c1)ccc1ccccc12 [phenanthrene] |  |  |  |  |  |  |  |  | does not cause a drastic decrease in the catalytic currents |

— patent US11337627B2, “Bioelectrode for detection and/or oxidation of glucose, its production method and device” (CENTRE NATIONAL DE LA RECHERCHE SCIENTIFIQUE, priority 2016, dated 2022)
